{"source": "patent KR20110060529A", "about": "“시클로헥산 디카르복실산 유도체를 함유하는 피부 외용제 조성물” ((주)아모레퍼시픽, priority 2009, dated 2011)", "format_in_all_cases": "in vitro ADME, guinea pig", "key": {"[1]": {"test": "Test Example 4: skin absorption of vitamin A (retinoic acid) (Franz permeation cell, HPLC)"}, "[2]": {"test": "Test Example 3: skin absorption of arbutin (Franz permeation cell, HPLC)"}, "[3]": {"test": "Test Example 2: skin absorption of ascorbyl glucoside (Franz permeation cell, HPLC)"}}, "data": [{"smiles": "CCOCCOCCOC(=O)C1CCC(C(=O)OCCOCCOCC)CC1", "note": "(stereo not drawn) [시클로헥산 디카르복실산 유도체, Bis-Ethoxydiglycol Cyclohexane 1,4-Dicarboxylate]", "values": [{"measurement": "increase in skin absorption of retinoic acid", "setting": "[1]", "result": "2~3 fold"}, {"measurement": "increase in skin absorption of arbutin", "setting": "[2]", "result": "5~6 fold"}, {"measurement": "increase in skin absorption of ascorbyl glucoside", "setting": "[3]", "result": "5~6 fold"}]}]}
